Patent US9938292B2 (GUANGDONG ZHONGSHENG PHARMACEUTICAL CO., LTD, priority 2014, dated 2018)

Each compound was assayed on Hedgehog signaling pathway (assay: Gli-Luc luciferase reporter gene assay in C3H10T1/2/Gli-Luc cells under Shh-N stimulation). Details: Mus musculus, C3H 10T1/2, 24 h, luciferase RLU, read-out: biological activity: IC50 of the inhibitory activities of compounds on the hedgehog pathway.
Format: cell-based
Outline: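 IC50 derived by curve fitting of luciferase RLU against log compound concentration. Stable C3H10T1/2/Gli-Luc cells, seeded overnight, were co-treated 24 h with serially diluted compound (7 points, duplicate wells) and 30 nM Shh-N-containing HEK293 conditioned medium before lysis and luminescence readout.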
Work on `C[C@@H]1CN(c2ccc(-c3cnc4c(-c5ccc(C#N)cc5)cccc4c3C3CCC3)cn2)C[C@H](C)O1` [Embodiment 259, 4-(4-cyclobutyl-3-(6-((2S,6R)-2,6-dimethylmorpholino)pyridin-3-yl)quinolin-8-yl) benzonitrile] yielded an IC50 of 0.05 to 0.1 µM. `C[C@@H]1CN(c2ccc(-c3cnc4c(-c5ccc(C#N)cc5)cccc4c3C3=CCCC3)cn2)C[C@H](C)O1` [Embodiment 260] gave an IC50 of 0.1 to 0.5 µM. `CC(C)c1ccc(N2CCN(c3cnc4c(-c5ccc(C#N)cc5)cccc4c3C3CC3)CC2)nc1` [Embodiment 261, 4-(4-((4-cyclopropyl-35-isopropylpyridin-2-yl)-3-)-quinolin-8-yl)benzonitrile] showed an IC50 of 0.1 to 0.5 µM. `CC(C)(O)c1ccc(C2(O)CCN(c3cnc4c(-c5ccc(C#N)cc5)cccc4c3C3CC3)CC2)nc1` [Embodiment 262] showed an IC50 of no more than 0.05 µM. In the case of `C[C@@H]1CN(c2ccc(-c3cnc4c(-c5ccccn5)cccc4c3C3CC3)cc2)C[C@H](C)O1` [Embodiment 263, (2S,6R)-4-(5-(4-8-cyclopropyl-(2-pyridinyl)quinolin-3-yl)pyridin-2-yl)-2,6-dimethylmorpholine], the IC50 is reported as no more than 0.05 µM. Compound `C[C@@H]1CN(c2ccc(-c3cnc4c(-c5ccc(OC(F)(F)F)cc5)cccc4c3C3CC3)cn2)C[C@H](C)O1` [Embodiment 265, (2S,6R)-4-(5-(4-cyclopropyl-8-(4-(trifluoromethoxy)phenyl)quinolin-3-yl)pyridin-2-yl)-2,6-dimethylmorpholine] has an IC50 of 0.05 to 0.1 µM. `C[C@H]1CN(c2ccc(-c3cnc4c(-c5ccc(C#N)cc5)cccc4c3C3CC3)cn2)C[C@H](C)O1` [Embodiment 266, 4-(4-cyclopropyl-3-(6-((2S,6S)-2,6-dimethylmorpholino)pyridin-3-yl)quinolin-8-yl) benzonitrile] showed an IC50 of no more than 0.05 µM. `CS(=O)(=O)CCC(=O)N1CCN(c2cnc3c(-c4ccc(C#N)cc4)cccc3c2C2CC2)CC1` [Embodiment 267, 4-(4-cyclopropyl-3-(4-(3-(methylsulfonyl)-3-propanoyl))quinolin-8-yl) benzonitrile] was tested, and the IC50 was no more than 0.05 µM. `COc1c(N2CCC(N3CCCC3)CC2)cnc2c(-c3ccc(C#N)cc3)cccc12` [Embodiment 268, 4-(4-methoxy-3-(4-(pyrrolidin-1-yl)piperidin-1-yl)quinolin-8-yl)benzonitrile] showed an IC50 of 0.1 to 0.5 µM. Compound `C[C@@H]1CN([C@@H]2CCN(c3cnc4c(-c5ccc(C#N)cc5)cccc4c3C3CC3)C[C@@H]2F)C[C@H](C)O1` [Embodiment 269, 4-(4-cyclopropyl-3-((3S,4R)-4-((2S,6R)-2,6-dimethylmorpholino)-3-fluoropiperidin-1-yl)quinolin-8-yl)benzonitrile] has an IC50 of no more than 0.05 µM. `COc1c(N2CCN(c3ccc(C(C)C)cn3)CC2)cnc2c(-c3ccc(C#N)cc3)cccc12` [Embodiment 270, 4-(3-(4-(5-isopropylpyridin-2-yl)-3-)-4-methoxyquinolin-8-yl) benzonitrile] gave an IC50 of 0.05 to 0.1 µM. `N#Cc1ccc(-c2cccc3c(C4CC4)c(N4CCN(c5cc[nH]c(=O)c5)CC4)cnc23)cc1` [Embodiment 271, 4-(4-cyclopropyl-3-(4-(2-oxo-1,2-dihydropyridin-4-yl)piperazin-1-yl)quinolin-8-yl) benzonitrile] showed an IC50 of 0.1 to 0.5 µM.
